Reference: PubChem BioAssay (NCI)
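In this assay, cells in 96-well plates receive the compound at five concentrations for 48 hours. Endpoints are linearly interpolated between the surrounding concentrations. GI50: concentration for 50% inhibition of growth. Definition used: TGI = concentration required for complete inhibition of growth.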

Key:
Test in all cases: NCI-60 cell line screen, 48 h
SNB-19 CNS = system: SNB-19 CNS
SK-MEL-28 melanoma = system: SK-MEL-28 melanoma
KM12 colon = system: KM12 colon
SF-539 CNS = system: SF-539 CNS
SF-268 CNS = system: SF-268 CNS
U251 CNS = system: U251 CNS
HT29 colon = system: HT29 colon
NCI-H522 lung = system: NCI-H522 lung
HCT-15 colon = system: HCT-15 colon
NCI-H226 lung = system: NCI-H226 lung
MDA-MB-231 breast = system: MDA-MB-231 breast
SR leukemia = system: SR leukemia
NCI/ADR-RES ovarian = system: NCI/ADR-RES ovarian
786-0 renal = system: 786-0 renal
UO-31 renal = system: UO-31 renal
ACHN renal = system: ACHN renal
K-562 leukemia = system: K-562 leukemia
HOP-62 NSCLC = system: HOP-62 NSCLC
MALME-3M melanoma = system: MALME-3M melanoma
LOX IMVI melanoma = system: LOX IMVI melanoma
CAKI-1 renal = system: CAKI-1 renal
SNB-75 CNS = system: SNB-75 CNS
MOLT-4 leukemia = system: MOLT-4 leukemia
UACC-62 melanoma = system: UACC-62 melanoma
SN12C renal = system: SN12C renal
SW-620 colon = system: SW-620 colon
SK-OV-3 ovarian = system: SK-OV-3 ovarian
SK-MEL-5 melanoma = system: SK-MEL-5 melanoma
COLO 205 colon = system: COLO 205 colon
OVCAR-5 ovarian = system: OVCAR-5 ovarian
RXF 393 renal = system: RXF 393 renal
TK-10 renal = system: TK-10 renal
OVCAR-4 ovarian = system: OVCAR-4 ovarian
A498 renal = system: A498 renal
SF-295 CNS = system: SF-295 CNS
MCF7 breast = system: MCF7 breast
OVCAR-3 ovarian = system: OVCAR-3 ovarian
MDA-MB-435 = system: MDA-MB-435
RPMI-8226 leukemia = system: RPMI-8226 leukemia
HCC-2998 colon = system: HCC-2998 colon
M14 melanoma = system: M14 melanoma
HS 578T breast = system: HS 578T breast
BT-549 breast = system: BT-549 breast
NCI-H460 lung = system: NCI-H460 lung
HCT-116 colon = system: HCT-116 colon
HL-60(TB) leukemia = system: HL-60(TB) leukemia
A549 NSCLC = system: A549 NSCLC
EKVX NSCLC = system: EKVX NSCLC
PC-3 prostate = system: PC-3 prostate
DU-145 prostate = system: DU-145 prostate
NCI-H23 lung = system: NCI-H23 lung
HOP-92 NSCLC = system: HOP-92 NSCLC
IGROV1 ovarian = system: IGROV1 ovarian
OVCAR-8 ovarian = system: OVCAR-8 ovarian
UACC-257 melanoma = system: UACC-257 melanoma
CCRF-CEM leukemia = system: CCRF-CEM leukemia
SK-MEL-2 melanoma = system: SK-MEL-2 melanoma
T-47D breast = system: T-47D breast

SMILES: O=C1CCc2c(Oc3ccc4c(c3)[C@H]3[C@@H](O4)[C@@H]3c3nc4ccc(C(F)(F)F)cc4[nH]3)ccnc2N1
- GI50 (SNB-19 CNS): 4520 nM
- TGI (SNB-19 CNS): > 100000 nM
- GI50 (SK-MEL-28 melanoma): 32.6 nM
- TGI (SK-MEL-28 melanoma): 3800 nM
- GI50 (KM12 colon): 690 nM
- TGI (KM12 colon): > 100000 nM
- GI50 (SF-539 CNS): 4660 nM
- TGI (SF-539 CNS): > 100000 nM
- GI50 (SF-268 CNS): 2730 nM
- TGI (SF-268 CNS): > 100000 nM
- GI50 (U251 CNS): 3920 nM
- TGI (U251 CNS): > 100000 nM
- GI50 (HT29 colon): 30.2 nM
- TGI (HT29 colon): > 37600 nM
- GI50 (NCI-H522 lung): 903 nM
- TGI (NCI-H522 lung): > 28100 nM
- GI50 (HCT-15 colon): 2400 nM
- TGI (HCT-15 colon): > 100000 nM
- GI50 (NCI-H226 lung): 1100 nM
- TGI (NCI-H226 lung): > 100000 nM
- GI50 (MDA-MB-231 breast): 610 nM
- TGI (MDA-MB-231 breast): 8280 nM
- GI50 (SR leukemia): 2560 nM
- TGI (SR leukemia): > 25200 nM
- GI50 (NCI/ADR-RES ovarian): 2830 nM
- TGI (NCI/ADR-RES ovarian): > 100000 nM
- GI50 (786-0 renal): 6280 nM
- TGI (786-0 renal): > 100000 nM
- GI50 (UO-31 renal): 693 nM
- TGI (UO-31 renal): > 25300 nM
- GI50 (ACHN renal): 711 nM
- TGI (ACHN renal): > 100000 nM
- GI50 (K-562 leukemia): 38.1 nM
- GI50 (HOP-62 NSCLC): 2450 nM
- TGI (HOP-62 NSCLC): > 100000 nM
- GI50 (MALME-3M melanoma): < 13.7 nM
- TGI (MALME-3M melanoma): 61.3 nM
- GI50 (LOX IMVI melanoma): 102 nM
- TGI (LOX IMVI melanoma): 4650 nM
- GI50 (CAKI-1 renal): 1470 nM
- TGI (CAKI-1 renal): > 100000 nM
- GI50 (SNB-75 CNS): 4390 nM
- TGI (SNB-75 CNS): > 100000 nM
- GI50 (MOLT-4 leukemia): 1660 nM
- TGI (MOLT-4 leukemia): > 100000 nM
- GI50 (UACC-62 melanoma): 21.5 nM
- TGI (UACC-62 melanoma): 1410 nM
- GI50 (SN12C renal): 2210 nM
- TGI (SN12C renal): > 100000 nM
- GI50 (SW-620 colon): 2430 nM
- TGI (SW-620 colon): > 100000 nM
- GI50 (SK-OV-3 ovarian): 3540 nM
- TGI (SK-OV-3 ovarian): > 100000 nM
- GI50 (SK-MEL-5 melanoma): 435 nM
- TGI (SK-MEL-5 melanoma): 2910 nM
- GI50 (COLO 205 colon): 35.9 nM
- TGI (COLO 205 colon): 8390 nM
- GI50 (OVCAR-5 ovarian): 1070 nM
- TGI (OVCAR-5 ovarian): > 100000 nM
- GI50 (RXF 393 renal): 4030 nM
- TGI (RXF 393 renal): > 100000 nM
- GI50 (TK-10 renal): 1610 nM
- TGI (TK-10 renal): > 30300 nM
- GI50 (OVCAR-4 ovarian): 2020 nM
- TGI (OVCAR-4 ovarian): > 100000 nM
- GI50 (A498 renal): 1120 nM
- TGI (A498 renal): 4240 nM
- GI50 (SF-295 CNS): 3630 nM
- TGI (SF-295 CNS): > 100000 nM
- GI50 (MCF7 breast): 2250 nM
- TGI (MCF7 breast): > 100000 nM
- GI50 (OVCAR-3 ovarian): 4180 nM
- TGI (OVCAR-3 ovarian): > 100000 nM
- GI50 (MDA-MB-435): 68.2 nM
- TGI (MDA-MB-435): > 100000 nM
- GI50 (RPMI-8226 leukemia): 2560 nM
- TGI (RPMI-8226 leukemia): > 100000 nM
- GI50 (HCC-2998 colon): 3080 nM
- TGI (HCC-2998 colon): > 100000 nM
- GI50 (M14 melanoma): 26 nM
- TGI (M14 melanoma): 2710 nM
- GI50 (HS 578T breast): 5410 nM
- TGI (HS 578T breast): > 100000 nM
- GI50 (BT-549 breast): 3220 nM
- TGI (BT-549 breast): > 100000 nM
- GI50 (NCI-H460 lung): 2410 nM
- TGI (NCI-H460 lung): > 100000 nM
- GI50 (HCT-116 colon): 406 nM
- TGI (HCT-116 colon): > 100000 nM
- GI50 (HL-60(TB) leukemia): 237 nM
- TGI (HL-60(TB) leukemia): 3140 nM
- GI50 (A549 NSCLC): 2520 nM
- TGI (A549 NSCLC): > 100000 nM
- GI50 (EKVX NSCLC): 2990 nM
- TGI (EKVX NSCLC): > 100000 nM
- GI50 (PC-3 prostate): 3970 nM
- TGI (PC-3 prostate): > 100000 nM
- GI50 (DU-145 prostate): 4120 nM
- TGI (DU-145 prostate): > 100000 nM
- GI50 (NCI-H23 lung): 1420 nM
- TGI (NCI-H23 lung): > 100000 nM
- GI50 (HOP-92 NSCLC): 1180 nM
- TGI (HOP-92 NSCLC): 5680 nM
- GI50 (IGROV1 ovarian): 1190 nM
- TGI (IGROV1 ovarian): > 100000 nM
- GI50 (OVCAR-8 ovarian): 3120 nM
- TGI (OVCAR-8 ovarian): > 100000 nM
- GI50 (UACC-257 melanoma): 32.3 nM
- GI50 (CCRF-CEM leukemia): 3540 nM
- TGI (CCRF-CEM leukemia): > 100000 nM
- GI50 (SK-MEL-2 melanoma): 242 nM
- TGI (SK-MEL-2 melanoma): 1670 nM
- GI50 (T-47D breast): 1370 nM
- TGI (T-47D breast): > 27100 nM
